Laboratory results reported in the Kinase Knowledgebase extract (Sharma et al. 2016).

Experiments:
MAPK14 (human) = MAPK14 (human) (UniProt Q16539); assay: Inhibition of LPS-Induced TNF-alpha Production in Human Peripheral Blood Mononuclear Cell; settings: pbmc
MAPK14 (mice) = assay: Inhibition of LPS-Induced TNF-alpha Production in Mice; settings: dose or concentration not given here
MAPK14 = MAPK14 (UniProt Q16539); assay: Inhibition of MAPK14 Kinase Activity
Chain of MAPK14 (Q16539 whole entry, looked up): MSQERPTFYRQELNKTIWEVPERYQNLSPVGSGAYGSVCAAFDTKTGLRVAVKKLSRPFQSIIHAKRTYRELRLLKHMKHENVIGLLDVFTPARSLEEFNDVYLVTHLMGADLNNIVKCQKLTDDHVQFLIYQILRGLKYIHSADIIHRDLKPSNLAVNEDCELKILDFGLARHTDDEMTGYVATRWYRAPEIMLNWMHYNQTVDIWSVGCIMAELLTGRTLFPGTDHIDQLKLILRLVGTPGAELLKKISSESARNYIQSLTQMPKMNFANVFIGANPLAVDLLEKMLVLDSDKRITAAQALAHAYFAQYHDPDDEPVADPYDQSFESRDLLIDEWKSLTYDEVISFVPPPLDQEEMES

Chain of MAPK14 (human) (Q16539 whole entry, looked up): as above

Row | Structure (SMILES) | IC50 (MAPK14 (human)) | inhibition (MAPK14 (mice)) | IC50 (MAPK14)
1 | Nc1ccn2c(-c3ccncc3)c(-c3ccc(F)cc3)nc2n1 | 40 nM | – | –
2 | C[C@H](Nc1nccc(-c2c(-c3ccccc3)nc3nc(N)ccn23)n1)c1ccccc1 | 0.6 nM | 100% | –
3 | COC[C@H](C)Nc1cc(-c2c(-c3ccccc3)nc3nc(N)ccn23)ccn1 | 0.5 nM | – | –
4 | Nc1ccn2c(-c3ccnc(N[C@H]4CCCc5ccccc54)c3)c(-c3ccccc3)nc2n1 | 3 nM | – | –
5 | C[C@H](Nc1cc(-c2c(-c3ccc(F)cc3)nc3nc(N)ccn23)ccn1)c1ccccc1 | 2 nM | – | 1 nM
6 | C[C@@H](Nc1nccc(-c2c(-c3ccccc3)nc3nc(N)ccn23)n1)c1ccccc1 | 2.3 nM | – | –
7 | Fc1ccc(-c2[nH]c3ccc4[nH]c(Cc5ccccc5)nc4c3c2-c2ccncc2)cc1 | 60 nM | – | –
